According to US7563791B2, “Pyrrolotriazine derivatives useful for treating hyper-proliferative disorders and diseases associated with angiogenesis” (Bayer Pharmaceuticals Corporation, priority 2004, dated 2009):

Legend:
Type in all cases: cell-based
MDA-MB-231 cells = test: Tumor cell proliferation (Alamar Blue), MDA-MB-231; conditions: Homo sapiens, MDA-MB-231, 72 h
Method: (§1) Human tumor cells (e.g., HCT116 or MDA-MB-231 cells), are seeded in a Costar 96-well plate at 3.0×10^3 cells/well and grown in 150 μl of RPMI complete media (Invitrogen Corporation, Grand Island, N.Y.) containing 10% fetal bovine serum (Hyclone, Logan, Utah) at 37° C. for 16 h in an incubator with 5% CO2. To each well, 50 μl of additional growth media containing 40 μM to 18 nM concentrations of compound with 0.4% DMSO is added. Cells are grown for another 72 h at 37° C. with 5% CO2. 20 μl of Alamar Blue (Trek Diagnostic Systems, Inc., Cleveland, Ohio) reagent is added to each well and incubated for 3 h at 37° C. Plates are read in a SpectraMax Gemini (Molecular Devices, Calif.) with 544 nm excitation and 590 nm emission wavelength. IC50 values are determined by linear regression analysis of log drug concentration versus percent inhibition.

HCT116 cells = test: Tumor cell proliferation (Alamar Blue), HCT116; conditions: Homo sapiens, HCT-116, 72 h
Method: as §1

[1] = tested on: VEGF stimulated Phospho-ERK in HUVEC; test: Growth factor stimulated p-ERK assay in HUVECs (VEGF stimulation, ERK1/2 Bioplex); conditions: Homo sapiens, compound 2 hrs, then 50 ng/ml VEGF 10 min; for inhibition at 0.1 µM: @ 100 nM
Method: Growth Factor Stimulated p-ERK assay in HUVECs
Exponentially growing human endothelial HUVECs cells (human umbilical vein endothelial cells, cat# CC-2517, Cambrex, Walkersville, Md.) were seeded at twenty five thousand cells/well in 96 well plates in EBM-2 MV medium with growth factors (cat# CC-3202, Cambrex) and grown at 37° C. in 5% CO2. Sixteen hours post-plating, the cells were changed to serum-free medium (RPMI 1640 containing 0.1% BSA (bovine serum albumin) and compounds were added at different concentrations for 2 hrs, after which the cells were stimulated for 10 min with 50 ng/ml of either VEGF (vascular endothelial growth factor, Protein Sciences, Meriden, Conn.) or bFGF (basic fibroblast growth factor cat# PHG0026, Biosource International, Camarillo, Calif.). The rest of the assay was performed per manufacturer indications for the ERK½ Bioplex assay (cat#171-304004, Bio-Rad, Hercules, Calif.). After removing culture medium by aspiration, the cells were quickly rinsed with 100 μl of cell wash buffer A to stop treatment reaction. Eighty microliters of cell lysis buffer were then immediately added to each well of the 96 well plate which was put on ice. Cells in each well were lysed by pipetting up and down 5 times with a multi-channel pipet. The plate was then agitated on a microtiter plate shaker at 300 rpm for 20 min at 4° C. Cellular debris were pelleted by centrifugation at 4500 g for 15 min at 4° C. and the supernatant was collected. Forty five microliters of supernatant was diluted with an equal volume of Bio-Plex phosphoprotein assay Buffer B, The coupled and color coated beads were added into a 96 well filter plate, and the prepared lysates were added. The beads and lysate mixture was incubated at room temperature for 15-18 hrs. The following day, the plate was vacuum-filtered and then washed 3×. Twenty-five microliters of detection antibody solution were added to each well and the plate was then incubated for 30 min at room temperature. The plate was then vaccum-filtered and washed as described previously. Fifty microliters of streptavidin-PE solution was added to each well, the plate was incubated for 10 min at room temperature and then was then vaccum-filtered and washed as described above. One hundred twenty-five microliters of resuspension buffer was added to each well and data were acquired on the Luminex 100 instrument (Bio-Rad).

Row | Structure (SMILES) | IC50 (MDA-MB-231 cells; bounds given in μM) | IC50 (HCT116 cells; bounds given in μM) | inhibition at 0.1 µM [1] | inhibition at 1 µM [1] | further results
1 | CCOC(=O)c1cn2ncnc(N)c2c1-c1ccc(NC(=O)Nc2cc(C(C)(C)C)nn2-c2ccc(F)cc2)cc1 [Example 25, ethyl 4-amino-5-{4-[({[3-tert-butyl-1-(4-fluorophenyl)-1H-pyrazol-5-yl]amino}carbonyl)amino]phenyl}pyrrolo[2,1-f][1,2,4]triazine-6-carboxylate] |  |  |  |  | IC50 (MDA-MB-231 cells): < 0.5 µM; IC50 (HCT116 cells): < 0.5 µM
2 | Nc1ncnn2cc(C(=O)NC3CC3)c(-c3ccc(NC(=O)Nc4cc(C(F)(F)F)ccc4F)cc3)c12 [Example 69, 4-amino-N-cyclopropyl-5-{4-[({[2-fluoro-5-(trifluoromethyl)phenyl]amino}carbonyl)amino]phenyl}pyrrolo[2,1-f][1,2,4]triazine-6-carboxamide] | 1.5 to 5 µM | < 1.5 µM |  |  | IC50 (HCT116 cells): > 0.5 µM
3 | CCNC(=O)c1cn2ncnc(N)c2c1-c1ccc(NC(=O)Nc2cc(C(F)(F)F)ccc2F)cc1 [Example 71, 4-amino-N-ethyl-5-{4-[({[2-fluoro-5-(trifluoromethyl)phenyl]amino}carbonyl)amino]phenyl}pyrrolo[2,1-f][1,2,4]triazine-6-carboxamide] |  | < 1.5 µM |  |  | IC50 (MDA-MB-231 cells): < 0.5 µM; IC50 (HCT116 cells): > 0.5 µM
4 | CNC(=O)c1cn2ncnc(N)c2c1-c1ccc(NC(=O)Nc2cc(C(C)(C)C)ccn2)cc1 [Example 73, 4-amino-5-[4-({[(4-tert-butylpyridin-2-yl)amino]carbonyl}amino)phenyl]-N-methylpyrrolo[2,1-f][1,2,4]triazine-6-carboxamide] | 1.5 to 5 µM | 1.5 to 5 µM |  |  | 
5 | CNC(=O)c1cn2ncnc(N)c2c1-c1ccc(NC(=O)Nc2ccc(F)c(C(F)(F)F)c2)cc1 [Example 74, 4-amino-5-{4-[({[4-fluoro-3-(trifluoromethyl)phenyl]amino}carbonyl)amino]phenyl}-N-methylpyrrolo[2,1-f][1,2,4]triazine-6-carboxamide] | 1.5 to 5 µM | 1.5 to 5 µM |  |  | 
6 | CC(C)(C)NC(=O)c1cn2ncnc(N)c2c1-c1ccc(NC(=O)Nc2cc(C(F)(F)F)ccc2F)cc1 [Example 75, 4-amino-N-(tert-butyl)-5-{4-[({[2-fluoro-5-(trifluoromethyl)phenyl]amino}carbonyl)amino]phenyl}pyrrolo[2,1-f][1,2,4]triazine-6-carboxamide] |  |  | < 50% | > 50% | 
7 | CC(C)(C)c1ccnc(NC(=O)Nc2ccc(-c3c(C(=O)NC4CC4)cn4ncnc(N)c34)cc2)c1 [Example 76, 4-amino-5-[4-({[(4-tert-butylpyridin-2-yl)amino]carbonyl}amino)phenyl]-N-cyclopropylpyrrolo[2,1-f][1,2,4]triazine-6-carboxamide] | 1.5 to 5 µM | < 1.5 µM |  |  | IC50 (HCT116 cells): > 0.5 µM
8 | Nc1ncnn2cc(C(=O)NC3CC3)c(-c3ccc(NC(=O)Nc4cc(C(F)(F)F)ccn4)cc3)c12 [Example 82, 4-amino-N-cyclopropyl-5-{4-[({[4-(trifluoromethyl)pyridin-2-yl]amino}carbonyl)amino]phenyl}pyrrolo[2,1-f][1,2,4]triazine-6-carboxamide] | < 1.5 µM | 1.5 to 5 µM |  |  | IC50 (MDA-MB-231 cells): > 0.5 µM
9 | COCCN(C)C(=O)c1cn2ncnc(N)c2c1-c1ccc(NC(=O)Nc2ccc(F)c(C(F)(F)F)c2)cc1 [Example 84, 4-amino-5-{4-[({[4-fluoro-3-(trifluoromethyl)phenyl]amino}carbonyl)amino]phenyl}-N-(2-methoxyethyl)-N-methylpyrrolo[2,1-f][1,2,4]triazine-6-carboxamide] |  | 5 to 10 µM |  |  | 
10 | Cc1cn2ncnc(N)c2c1-c1ccc(NC(=O)Nc2cc(C(F)(F)F)ccc2F)cc1 [Example 85, N-[4-(4-amino-6-methylpyrrolo[2,1-f][1,2,4]triazin-5-yl)phenyl]-N′-[2-fluoro-5-(trifluoromethyl)phenyl]urea] |  |  | < 50% | > 50% | 
11 | Cn1nc(C(C)(C)C)cc1NC(=O)Nc1ccc(-c2c(C(=O)NCC(F)(F)F)cn3ncnc(N)c23)cc1 [Example 94, 4-amino-5-[4-({[(3-tert-butyl-1-methyl-1H-pyrazol-5-yl)amino]carbonyl}amino)phenyl]-N-(2,2,2-trifluoroethyl)pyrrolo[2,1-f][1,2,4]triazine-6-carboxamide] | 1.5 to 5 µM | 5 to 10 µM |  |  | 
12 | CCOC(=O)c1cn2ncnc(N)c2c1-c1ccc(NC(=O)Nc2ccc(OC)c(CN3CCOCC3)c2)cc1 [Example 96, ethyl 4-amino-5-{4-[({[4-methoxy-3-(morpholin-4-ylmethyl)phenyl]amino}carbonyl)amino]phenyl}pyrrolo[2,1-f][1,2,4]triazine-6-carboxylate] |  |  | < 50% | < 50% | inhibition at 10 µM [1]: > 50%
13 | CCOC(=O)c1cn2ncnc(N)c2c1-c1ccc(NC(=O)Nc2cccc(OCCN(CC)CC)c2)cc1 [Example 98, ethyl 4-amino-5-(4-{[({3-[2-(diethylamino)ethoxy]phenyl}amino)carbonyl]amino}phenyl)pyrrolo[2,1-f][1,2,4]triazine-6-carboxylate] |  |  | < 50% | < 50% | inhibition at 10 µM [1]: > 50%
14 | NC(=O)c1cn2ncnc(N)c2c1-c1ccc(NC(=O)Nc2cc(C(F)(F)F)ccc2F)cc1 [Example 104, 4-amino-5-{4-[({[2-fluoro-5-(trifluoromethyl)phenyl]amino}carbonyl)amino]phenyl}pyrrolo[2,1-f][1,2,4]triazine-6-carboxamide] |  |  | < 50% | < 50% | inhibition at 10 µM [1]: > 50%
15 | COCCNC(=O)c1cn2ncnc(N)c2c1-c1ccc(NC(=O)Nc2cccc(SC(F)(F)F)c2)cc1 [Example 131, 4-amino-N-(2-methoxyethyl)-5-(4-{[({3-[(trifluoromethyl)thio]phenyl}amino)carbonyl]amino}phenyl)pyrrolo[2,1-f][1,2,4]triazine-6-carboxamide] |  |  | < 50% | > 50% | 
16 | Nc1ncnn2cc(C(=O)NCC(F)(F)F)c(-c3ccc(NC(=O)Nc4ccnc(C(F)(F)F)c4)cc3)c12 [Example 140, 4-amino-N-(2,2,2-trifluoroethyl)-5-{4-[({[2-(trifluoromethyl)pyridin-4-yl]amino}carbonyl)amino]phenyl}pyrrolo[2,1-f][1,2,4]triazine-6-carboxamide] |  |  | < 50% | < 50% | inhibition at 10 µM [1]: > 50%
17 | CC(C)(CO)NC(=O)c1cn2ncnc(N)c2c1-c1ccc(NC(=O)Nc2cc(C(F)(F)F)ccc2Cl)cc1 [Example 143, 4-amino-5-{4-[({[2-chloro-5-(trifluoromethyl)phenyl]amino}carbonyl)amino]phenyl}-N-(2-hydroxy-1,1-dimethylethyl)pyrrolo[2,1-f][1,2,4]triazine-6-carboxamide] |  |  | < 50% | > 50% | 
18 | Nc1ncnn2cc(C(=O)NCC3CCCO3)c(-c3ccc(NC(=O)Nc4cc(C(F)(F)F)ccc4F)cc3)c12 (centres unmarked) [Example 146, 4-amino-5-{4-[({[2-fluoro-5-(trifluoromethyl)phenyl]amino}carbonyl)amino]phenyl}-N-(tetrahydrofuran-2-ylmethyl)pyrrolo[2,1-f][1,2,4]triazine-6-carboxamide] |  |  | < 50% | > 50% | 
19 | N#Cc1cn2ncnc(N)c2c1-c1ccc(NC(=O)Nc2cccc(C(F)(F)F)n2)cc1 [Example 168, N-[4-(4-amino-6-cyanopyrrolo[2,1-f][1,2,4]triazin-5-yl)phenyl]-N′-[6-(trifluoromethyl)pyridin-2-yl]urea] |  |  | < 50% | > 50% | 
20 | Nc1ncnn2cc(CO)c(-c3ccc(NC(=O)Nc4cc(C(F)(F)F)ccc4F)c(F)c3)c12 [Example 251, N-{4-[4-amino-6-(hydroxymethyl)pyrrolo[2,1-f][1,2,4]triazin-5-yl]-2-fluorophenyl}-N′-[2-fluoro-5-(trifluoromethyl)phenyl]urea] | < 1.5 µM |  |  |  | IC50 (MDA-MB-231 cells): > 0.5 µM
